In PubChem BioAssay (NCI):
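Exposure lasted 48 hours, with cells grown in 96-well plates and compounds tested at five concentrations. GI50: concentration for 50% inhibition of growth. TGI: concentration producing complete growth inhibition.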

How the values were obtained:
Experiment in all cases: growth of human tumour cells (NCI), 48 h
[1] = tested on: SF-539 CNS
[2] = tested on: UACC-62 melanoma
[3] = tested on: NCI-H226 lung
[4] = tested on: BT-549 breast
[5] = tested on: HCT-116 colon
[6] = tested on: SR leukemia
[7] = tested on: SN12C renal
[8] = tested on: SNB-19 CNS

SMILES | GI50 [1] [µM] | TGI [1] [µM] | GI50 [2] [µM] | TGI [2] [µM] | GI50 [3] [µM] | TGI [3] [µM] | GI50 [4] [µM] | TGI [4] [µM] | GI50 [5] [µM] | TGI [5] [µM] | GI50 [6] [µM] | TGI [6] [µM] | GI50 [7] [µM] | TGI [7] [µM] | GI50 [8] [µM] | TGI [8] [µM]
C/C(=N\Nc1cc(C)c2cc(C)ccc2n1)c1ccccn1 | 0.0573 | 0.263 | 0.0794 | 0.375 | 0.0366 | 1.05 | 0.276 | 17.2 | < 0.0497 | 1.36 | < 0.031 | 0.491 | 0.0607 | 4.12 | 0.145 | 13.7
CC(C)(O)CS(=O)(=O)Nc1ccc2c(c1)CCN(C(=O)COc1cccnc1)C2 | < 0.0224 | > 100 | > 100 | > 100 | > 100 | > 100 | 2.33 | > 100 | 0.0311 | > 100 | > 45.7 | > 100 | 0.0677 | > 100 |  | > 100
COC(=O)C1=C(C(=O)ON)C2C=CC1(C(Cc1ccccc1)Nc1ccccc1)O2 (centres undefined) | 11.5 | 23.7 | 2.24 | 6.66 | 12.8 | 25.6 | 2.07 | 4.87 | 1.77 | 3.24 | 2.67 | 43.6 | 1.99 | 4.45 | 14.8 | 27.9
O=C1C(=O)c2ccccc2C(O)=C1CC=C(Br)Br | 4.17 | 47.3 | 1.57 | 35.9 | 11.6 | 53.2 | 11.3 | 71.9 | 0.887 | > 100 | 2.57 | 55.9 | 5.7 | 77.9 | 4.67 | 77.8
CC(=O)[C@@]1(O)CC[C@H]2[C@@H]3C[C@H](C)C4=CC(=O)CC[C@]4(C)[C@H]3[C@@H](O)C[C@@]21C |  | > 100 |  | > 100 |  | > 100 |  | > 100 |  | > 100 |  | > 100 |  | > 100 |  | > 100
O=C(/C=C/c1cccnc1)NCCCCC1CCCN(C(=O)c2ccccc2)C1 (centres undefined) | < 0.01 | > 100 | > 90.6 | > 100 | > 79.5 | > 100 |  | > 100 | < 0.01 | > 100 | 0.0617 | > 100 | < 0.01 | > 100 |  | > 100
C=C1C(=O)O[C@H]2[C@H]1CC/C(Cn1cc(-c3cc(C(F)(F)F)cc(C(F)(F)F)c3)nn1)=C\CC[C@@]1(C)O[C@@H]21 | 0.178 | 0.422 | 0.344 | 1.38 | 1.65 | 3.56 | 0.178 | 0.509 | 0.153 | 0.312 | 0.103 | 0.444 | 0.702 | 2.38 | 1.71 | 3.58
O=NNc1ccc(S(=O)(=O)c2ccccc2)cn1 |  | > 100 |  | > 100 |  | > 100 |  | > 100 |  | > 100 |  | > 100 |  | > 100 |  | > 100
